Source: publication PMC9490236, “Accurate de novo design of membrane-traversing macrocycles” (Cell, 2022)
Where a SMILES comes first, the peptide text is derived from it. [ ]: non-standard residue; d: D form. NMeF = CN[C@@H](Cc1ccccc1)C(=O)O; dNMeF = CN[C@H](Cc1ccccc1)C(=O)O; NMeL = CN[C@@H](CC(C)C)C(=O)O; dNMeL = CN[C@H](CC(C)C)C(=O)O; NMeA = CN[C@@H](C)C(=O)O; dNMeA = CN[C@H](C)C(=O)O

Conditions: PAMPA

## PRO DPRO DALA DPHE DLEU ILE DPHE *DALA LEU PRO NLE [Design D11.14.p1]
  PAMPA_Papp_Avg: BQL
  PAMPA_R1: BQL
  PAMPA_R3: BQL

## CC(C)C[C@@H]1C(=O)N(C)[C@@H](Cc2ccccc2)C(=O)N[C@@H](C(C)C)C(=O)N2CCC[C@H]2C(=O)NCC(=O)N2CCC[C@H]2C(=O)N(C)[C@H](CC(C)C)C(=O)N[C@@H](C(C)C)C(=O)N[C@H](CC(C)C)C(=O)N1C (single isomer, unassigned) [Design D9.43.p1, *DLEU VAL DLEU *DLEU *PHE VAL PRO GLY PRO]
  PAMPA_Papp_Avg: 9.46E-07
  PAMPA_R1: 8.93E-07
  PAMPA_R3: 5.40E-07

## CC(C)C[C@@H]1NC(=O)[C@H](CC(C)C)NC(=O)[C@H](C(C)C)NC(=O)[C@H](C)NC(=O)[C@@H]2CCCN2C(=O)[C@H]2CCCN2C(=O)[C@@H]2CCCN2C(=O)[C@H](C)N(C)C(=O)[C@@H](CC(C)C)N(C)C(=O)[C@@H]2CCCN2C(=O)[C@H](Cc2ccccc2)NC1=O [Design D11.7, PHE PRO *DLEU *ALA PRO DPRO PRO ALA VAL LEU LEU] (cyclo(AVLLFP[dNMeL][NMeA]P[dP]P))
  PAMPA_Papp_Avg: BQL
  PAMPA_R1: BQL
  PAMPA_R3: BQL

## CC(C)C[C@@H]1NC(=O)[C@@H](C(C)C)NC(=O)[C@@H]2CCCN2C(=O)[C@H]2CCCN2C(=O)[C@H](Cc2ccccc2)NC(=O)[C@@H](C)NC(=O)[C@@H](CC(C)C)N(C)C(=O)[C@@H]2CCCN2C(=O)[C@H]2CCCN2C(=O)[C@@H](C(C)C)NC(=O)[C@@H](C)N(C)C1=O [Design D11.12, DVAL DPRO PRO *DLEU DALA PHE DPRO PRO DVAL LEU *DALA] (cyclo([dNMeL][dA]F[dP]P[dV]L[dNMeA][dV][dP]P))
  PAMPA_Papp_Avg: BQL
  PAMPA_R1: BQL
  PAMPA_R3: BQL

## CC[C@@H](C)[C@H]1NC(=O)[C@@H](CC(C)C)N(C)C(=O)[C@@H]2CCCN2C(=O)[C@H]([C@@H](C)CC)NC(=O)[C@H]([C@@H](C)CC)N(C)C(=O)[C@@H](CC(C)C)NC(=O)[C@@H](C(C)C)N(C)C(=O)[C@H]2CCCN2C(=O)[C@@H](C(C)C)NC(=O)[C@@H]2CCCN2C(=O)[C@H]([C@@H](C)CC)NC1=O (single isomer, unassigned) [Design D11.23.p1, DVAL DPRO *DVAL DLEU *ILE ILE PRO *DLEU DILE ILE PRO]
  PAMPA_Papp_Avg: 2.70E-06
  PAMPA_R1: 1.22E-06
  PAMPA_R3: 5.23E-06

## CC[C@@H](C)[C@H]1NC(=O)[C@H]2CCCN2C(=O)[C@@H]2CCCN2C(=O)[C@H](C(C)C)NC(=O)[C@@H](C(C)C)NC(=O)[C@@H]2CCCN2C(=O)[C@H]2CCCN2C(=O)[C@@H](C)NC1=O [Design D8.11, DALA DPRO PRO DVAL VAL PRO DPRO DILE] (cyclo([dV]VP[dP][dI][dA][dP]P))
  PAMPA_Papp_Avg: BQL
  PAMPA_R1: BQL
  PAMPA_R3: BQL

## CC[C@@H](C)[C@H]1NC(=O)[C@@H](CC(C)C)N(C)C(=O)[C@H](CC(C)C)NC(=O)[C@@H](C(C)C)NC(=O)[C@@H]2CCCN2C(=O)[C@H]2CCCN2C(=O)[C@@H]([C@H](C)CC)NC(=O)[C@@H](C)N(C)C(=O)[C@@H]([C@H](C)CC)NC(=O)[C@H](Cc2ccccc2)N(C)C(=O)[C@H]2CCCN2C(=O)[C@@H](Cc2ccccc2)NC1=O [Design D12.7, DPHE DPRO *PHE DILE *DALA DILE DPRO PRO DVAL LEU *DLEU DILE] (cyclo([dV]L[dNMeL][dI][dF][dP][NMeF][dI][dNMeA][dI][dP]P))
  PAMPA_Papp_Avg: BQL
  PAMPA_R1: BQL
  PAMPA_R3: BQL

## CC[C@@H](C)[C@H]1NC(=O)[C@H](C(C)C)NC(=O)[C@H]2CCCN2C(=O)[C@@H]2CCCN2C(=O)[C@H](Cc2ccccc2)NC(=O)[C@@H](CC(C)C)NC(=O)[C@H](Cc2ccccc2)NC(=O)[C@@H]2CCCN2C(=O)[C@@H](C)N(C)C(=O)[C@@H]2CCCN2C(=O)[C@H](CC(C)C)NC(=O)[C@H](CC(C)C)N(C)C1=O [Design D12.4, PRO *DALA PRO PHE DLEU PHE PRO DPRO VAL DILE *LEU LEU] (cyclo(FP[dP]V[dI][NMeL]LP[dNMeA]PF[dL]))
  PAMPA_Papp_Avg: BQL
  PAMPA_R1: BQL
  PAMPA_R3: BQL

## CC[C@@H](C)[C@H]1NC(=O)[C@@H](C)NC(=O)[C@@H](CC(C)C)NC(=O)[C@@H](Cc2ccccc2)NC(=O)[C@@H]2CCCN2C(=O)[C@@H]2CCCN2C(=O)[C@@H](CC(C)C)N(C)C(=O)[C@@H](C)N(C)C(=O)[C@@H](CC(C)C)NC(=O)[C@H](CC(C)C)NC(=O)[C@@H](Cc2ccccc2)NC1=O [Design D11.18, DALA DILE DPHE LEU DLEU *DALA *DLEU PRO PRO DPHE DLEU] (cyclo(L[dL][dNMeA][dNMeL]PP[dF][dL][dA][dI][dF]))
  PAMPA_Papp_Avg: BQL
  PAMPA_R1: BQL
  PAMPA_R3: BQL

## CC[C@@H](C)[C@H]1NC(=O)[C@H](CC(C)C)NC(=O)[C@@H](CC(C)C)NC(=O)[C@H](C(C)C)NC(=O)[C@@H]2CCCN2C(=O)[C@H](CC(C)C)N(C)C(=O)[C@@H](CC(C)C)NC(=O)[C@H](Cc2ccccc2)N(C)C(=O)[C@H]2CCCN2C1=O [Design D9.38, DPRO *PHE DLEU *LEU PRO VAL DLEU LEU DILE] (cyclo(L[dI][dP][NMeF][dL][NMeL]PV[dL]))
  PAMPA_Papp_Avg: BQL
  PAMPA_R1: BQL
  PAMPA_R3: BQL

## CC[C@H](C)[C@@H]1NC(=O)[C@H]2CCCN2C(=O)[C@@H](CC(C)C)N(C)C(=O)[C@H](CC(C)C)NC(=O)[C@@H](C)N(C)C(=O)[C@H]2CCCN2C(=O)[C@@H](CC(C)C)NC(=O)[C@@H](C(C)C)NC(=O)[C@H](CC(C)C)NC(=O)[C@@H](C)NC(=O)[C@@H](Cc2ccccc2)NC(=O)[C@H]2CCCN2C1=O [Design D12.2, ILE DPRO DPHE DALA LEU DVAL DLEU DPRO *DALA LEU *DLEU DPRO] (cyclo(I[dP][dF][dA]L[dV][dL][dP][dNMeA]L[dNMeL][dP]))
  PAMPA_Papp_Avg: BQL
  PAMPA_R1: BQL
  PAMPA_R3: BQL

## CC[C@H](C)[C@@H]1NC(=O)[C@@H](CC(C)C)NC(=O)[C@H](CC(C)C)NC(=O)[C@H]2CCCN2C(=O)[C@@H]2CCCN2C(=O)[C@H](C)NC(=O)[C@H](Cc2ccccc2)N(C)C(=O)[C@@H](C(C)C)NC(=O)[C@H](Cc2ccccc2)N(C)C(=O)[C@@H](Cc2ccccc2)N(C)C1=O [Design D10.51, ILE *DPHE *PHE DVAL *PHE ALA PRO DPRO LEU DLEU] (cyclo(AP[dP]L[dL]I[dNMeF][NMeF][dV][NMeF]))
  PAMPA_Papp_Avg: BQL
  PAMPA_R1: BQL
  PAMPA_R3: BQL

## CC[C@H](C)[C@@H]1NC(=O)[C@@H]2CCCN2C(=O)[C@H](C)NC(=O)[C@@H](Cc2ccccc2)N(C)C(=O)[C@H](C)NC(=O)[C@@H]2CCCN2C(=O)[C@@H](Cc2ccccc2)N(C)C(=O)[C@H](Cc2ccccc2)N(C)C(=O)[C@H](CC(C)C)N(C)C(=O)[C@@H](C(C)C)NC1=O [Design D10.52, ILE DVAL *LEU *PHE *DPHE PRO ALA *DPHE ALA PRO] (cyclo(API[dV][NMeL][NMeF][dNMeF]PA[dNMeF]))
  PAMPA_Papp_Avg: BQL
  PAMPA_R1: BQL
  PAMPA_R3: BQL
